Test results taken from patent US20250275959A1, “COMPOUNDS AND METHODS OF THEIR USE” (LEXICON PHARMACEUTICALS, INC., priority 2024, published 2025).

Columns and labels:
hACSL5 = hACSL5 (Homo sapiens (Human), UniProt Q9ULC5); assay: Human ACSL5 coupled enzyme Amplex Red assay; format: biochemical; details: read-out: hACSL5 IC50
Summary of the method: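 C-terminally His-tagged ACSL5 (33-683) from sf9 cells, 20 nM, was preincubated with compound in MOPS-NaOH pH 7.6 with MgCl2, peroxidase and acyl-CoA oxidase. Reactions were started with 25 μM oleate, 30 μM CoA, 1 mM ATP and 50 μM Amplex Red; fluorescence (535/590 nm) after 10 minutes at 25° C. was fitted to the Hill equation for IC50 and maximal inhibition.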

[1] = Murine diet-induced obesity (DIO) model, Compounds B-D study; format: in vivo, C57BL/6J mice; details: DIO mice
Procedure: The effects of four representative compounds of the invention were tested in a mouse model of diet-induced obesity (DIO): • Compound A is (R)—N-(tert-butylsulfonyl)-4-(1-(5-(pyridin-3-yloxy)pyridin-2-yl)ethoxy)-3-(trifluoromethyl)benzamide; • Compound B is (R)-4-(1-(5-(cyclopropylmethoxy)pyridin-2-yl)propoxy)-N-((4-(2-(dimethylamino)ethoxy)phenyl)sulfonyl)-2,3-difluorobenzamide; • Compound C is (R)—N-((4-(2-(dimethylamino)ethoxy)piperidin-1l-yl)sulfonyl)-2,3-difluoro-4-(1-(5-(pyridin-2-yloxy)pyridin-2-yl)propoxy)benzamide; and • Compound D is (R)-2,3-difluoro-N-((4-methylpiperazin-1-yl)sulfonyl)-4-(1-(5-(pyridin-2-yloxy)pyridin-2-yl)propoxy)benzamide.
The mice used in these experiments were C57BL/6J mice fed a high-fat diet (D12492 from Research Diets) ad libitum during the study period. The vehicle and test article formulations were 10% w/v Solutol in water.
In this study, three compounds tested at 30 mg/kg were compared against vehicle control over a month. After their acclimation period, DIO mice were equally divided into groups of ten mice each based on body weight. The animals were pre-dosed for three days prior to formal dosing (once per day treatment every group), as well as weight and food intake were recorded from Day −2 onwards. From Day 1 to Day 27, the animals in the dosing group were administered orally by gavage at 5:00 p.m. every day. All animals were fasted overnight after dosing on Day 28 and Day 29. Then the blood (retro-orbital bleed) of mice from each group was collected at 7:00 a.m. to separate out the serum for measuring total cholesterol levels (TC), triglyceride (TG), aminotransferase alanine (ALT), aspartate aminotransferase (AST) and total bilirubin (TBil) levels on Day 29. On day 30, all animals were performed OGTT test (0 min, 15 min, 30 min, 60 min, 90 min and 120 min) and measured insulin levels (0 min, 15 min, 30 min and 60 min). On day 32, all animals were injected insulin after 4 hours fasting, then performed ITT test (0 min, 15 min, 30 min, 60 min and 90 min). On day 33, Epididymal white adipose tissue (eWAT), jejunum, liver, heart and brain were collected; eWAT, liver and heart weights were recorded. All of the adipose tissue in the abdominal cavity was collected and weighted, and the fatty tissue coefficient (body fat ratio) was calculated and then stored at −80° C. for inspection.
• 1. Body weight and Food Consumption: Pre-dose every day from Day −2 onwards. • 2. Day −2,—1 and Day 0: Handle mice and gavage with vehicle. • 3. Day 1˜27: Dose˜5:00 PM. • 4. Day 28: Dose˜5:00 PM. Fast overnight. • 5. Day 29: Determine total cholesterol levels and triglyceride, ALT, AST, total bilirubin levels˜7:00 AM. Resume feeding. • 6. Day 29: Dose˜5:00 PM. Fast overnight. • 7. Day 30: (No drug administration) Oral glucose tolerance test (OGTT) with glucose levels measured at Pre-dose, 15 min, 30 min, 60 min, 90 min and 120 min after the glucose challenge. And insulin levels will be test at time 0 min, 15 min, 30 min and 60 min after the glucose challenge. • 8. Day 30˜31: Dose˜5:00 PM. • 9. Day 32: (No drug administration) ITT test (two days after the OGTT test): Fast 4 h. After insulin injection, the levels of glucose will be measured at Pre-dose, 15 min, 30 min, 60 min and 90 min. • 10. After the ITT test. Collect serum with a terminal bleed from all 50 mice. • 11. Collect epidydimal WAT (eWAT) pad, jejunum, liver, heart, and brain. • 12. Record eWAT, liver, and heart weights. • 13. Before freezing tissue/serum: • (i) Assess Drug Concentration; serum, liver, eWAT, heart, jujenum, and brain. (25 serum samples; 5 mice/group will progress to biomarker study and remaining 25 serum samples saved for future analysis). • 14. Prepare liver, heart and eWAT tissue for histopathology analysis. • (ii) Liver for all 50 mice; HE staining to assess liver steatosis. • (iii) Heart or all 50 mice; HE and DAPI staining to assess cardiac morphology. […]

Chain of hACSL5 (Q9ULC5 33-683): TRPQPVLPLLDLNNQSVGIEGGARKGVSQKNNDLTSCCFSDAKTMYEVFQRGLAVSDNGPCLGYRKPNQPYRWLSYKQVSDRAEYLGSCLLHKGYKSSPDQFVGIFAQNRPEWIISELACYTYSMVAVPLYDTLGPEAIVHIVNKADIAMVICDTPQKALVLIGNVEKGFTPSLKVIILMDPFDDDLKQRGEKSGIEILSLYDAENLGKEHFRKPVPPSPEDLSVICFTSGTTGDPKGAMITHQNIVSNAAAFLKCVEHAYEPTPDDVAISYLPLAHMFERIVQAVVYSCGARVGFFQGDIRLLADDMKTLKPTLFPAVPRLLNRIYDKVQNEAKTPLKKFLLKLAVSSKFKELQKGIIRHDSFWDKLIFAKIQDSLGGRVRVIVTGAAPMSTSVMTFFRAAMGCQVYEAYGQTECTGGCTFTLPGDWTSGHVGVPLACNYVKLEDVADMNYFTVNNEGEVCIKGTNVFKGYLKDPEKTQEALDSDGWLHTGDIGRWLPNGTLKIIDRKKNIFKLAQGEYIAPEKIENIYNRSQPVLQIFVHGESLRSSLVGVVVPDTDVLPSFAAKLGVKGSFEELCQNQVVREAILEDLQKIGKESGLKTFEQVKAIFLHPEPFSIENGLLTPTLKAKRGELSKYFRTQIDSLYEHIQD

Structure (SMILES): CC[C@@H](Oc1ccc(C(=O)NS(=O)(=O)c2ccc(OCCN(C)C)cc2)c(F)c1F)c1ccc(OCC2CC2)cn1 [Compound B, (R)-4-(1-(5-(cyclopropylmethoxy)pyridin-2-yl)propoxy)-N-((4-(2-(dimethylamino)ethoxy)phenyl)sulfonyl)-2,3-difluorobenzamide]
- IC50 (hACSL5): < 100 nM
- mean body weight versus control group ([1]; 30 mg/kg oral daily): significantly lower than that of the control group from Day 15 to the end
- overall food consumption versus control group ([1]; 30 mg/kg oral daily): significantly lower than that of the control group
- Body Weight (g)/Day ([1]; 30 mg/kg oral daily, Day 1): 42.2 ± 4.7 g
- Body Weight (g)/Day ([1]; 30 mg/kg oral daily, Day 2): 42.2 ± 4.5 g
- Body Weight (g)/Day ([1]; 30 mg/kg oral daily, Day 3): 42.3 ± 4.7 g
- Body Weight (g)/Day ([1]; 30 mg/kg oral daily, Day 4): 43 ± 3.9 g
- Body Weight (g)/Day ([1]; 30 mg/kg oral daily, Day 5): 43.1 ± 3.9 g
- Body Weight (g)/Day ([1]; 30 mg/kg oral daily, Day 6): 43 ± 4.1 g
- Body Weight (g)/Day ([1]; 30 mg/kg oral daily, Day 7): 42.8 ± 4 g
- Body Weight (g)/Day ([1]; 30 mg/kg oral daily, Day 8): 43.1 ± 4.3 g
- Body Weight (g)/Day ([1]; 30 mg/kg oral daily, Day 9): 42.9 ± 4.5 g
- Body Weight (g)/Day ([1]; 30 mg/kg oral daily, Day 10): 43.3 ± 4.5 g
- Body Weight (g)/Day ([1]; 30 mg/kg oral daily, Day 11): 43.1 ± 4.6 g
- Body Weight (g)/Day ([1]; 30 mg/kg oral daily, Day 12): 42.7 ± 4.6 g
- Body Weight (g)/Day ([1]; 30 mg/kg oral daily, Day 13): 42.5 ± 4.6 g
- Body Weight (g)/Day ([1]; 30 mg/kg oral daily, Day 14): 42.3 ± 4.6 g
- Body Weight (g)/Day ([1]; 30 mg/kg oral daily, Day 15): 42.6 ± 4.5 g
- Body Weight (g)/Day ([1]; 30 mg/kg oral daily, Day 16): 42.5 ± 4.5 g
- Body Weight (g)/Day ([1]; 30 mg/kg oral daily, Day 17): 41.7 ± 4.6 g
- Body Weight (g)/Day ([1]; 30 mg/kg oral daily, Day 18): 42.1 ± 4.8 g
- Body Weight (g)/Day ([1]; 30 mg/kg oral daily, Day 19): 42.2 ± 4.7 g
- Body Weight (g)/Day ([1]; 30 mg/kg oral daily, Day 20): 42.2 ± 4.5 g
- Body Weight (g)/Day ([1]; 30 mg/kg oral daily, Day 21): 42.3 ± 4.7 g
- Body Weight (g)/Day ([1]; 30 mg/kg oral daily, Day 22): 42.4 ± 4.7 g
- Body Weight (g)/Day ([1]; 30 mg/kg oral daily, Day 23): 42.6 ± 4.7 g
- Body Weight (g)/Day ([1]; 30 mg/kg oral daily, Day 24): 42.6 ± 4.4 g
- Body Weight (g)/Day ([1]; 30 mg/kg oral daily, Day 25): 42.5 ± 4.8 g
- Body Weight (g)/Day ([1]; 30 mg/kg oral daily, Day 26): 42.8 ± 4.7 g
- Body Weight (g)/Day ([1]; 30 mg/kg oral daily, Day 27): 43 ± 4.8 g
- Body Weight (g)/Day ([1]; 30 mg/kg oral daily, Day 28): 42.9 ± 4.7 g
- Body Weight (g)/Day ([1]; 30 mg/kg oral daily, Day 29): 42.3 ± 4.4 g
- Body Weight (g)/Day ([1]; 30 mg/kg oral daily, Day 30): 40.4 ± 4.2 g
- Body Weight (g)/Day ([1]; 30 mg/kg oral daily, Day 31): 40.9 ± 4.2 g
- Body Weight (g)/Day ([1]; 30 mg/kg oral daily, Day 32): 40.3 ± 4.1 g
- Body Weight (g)/Day ([1]; 30 mg/kg, Day 0 (pre-dose)): 42.1 ± 4.8 g
- eWAT coefficient versus control group ([1]; 30 mg/kg, Day 33): slightly lower than that of the control group
- Body Weight (g)/Day ([1]; 30 mg/kg, Day −1 (pre-dose)): 41.7 ± 4.6 g
- Body Weight (g)/Day ([1]; 30 mg/kg, Day −2 (pre-dose)): 42.5 ± 4.5 g
- mean adipose weights versus control group ([1]; 30 mg/kg, abdominal adipose tissue): significantly lower than that of the control group
- ITT blood glucose versus control group ([1]; Day 32, at 30 minutes and 60 minutes after insulin): significantly lower than that of the control group
